Measurements as given in patent publication USRE38257E1, “Piperdine derivatives and hypotensives containing the same” (Ajinomoto Co., Inc., priority 1988, dated 2003).
Where a name gives a salt, the structure may show the parent alone.

Test system: male spontaneously hypertensive rats
Assay: Decrease in systolic blood pressure in spontaneously hypertensive rats after intravenous bolus injection, indirect (tail-cuff) method
Assay type: in vivo, rat
Details: for Decrease in systolic blood pressure (mmHg) time after administration (hour) 0.5: 0.5 hour after administration; for Decrease in systolic blood pressure (mmHg) time after administration (hour) 4: 4 hours after administration
Method: As test animals, four male spontaneously hypertensive rats (weight 400 to 440 g) that were sufficiently adapted for feeding and in which hypertension was confirmed were used.
Physiological saline aqueous solution containing 2.5% Nicolle and 2.5% ethanol of sample was intravenously administered by bolus injection at a dose of 1 ml per 1 kg of body weight. Systolic blood pressure after administration was measured by the indirect (tail-cuff) method.

| Compound | Decrease in systolic blood pressure (mmHg) time after administration (hour) 0.5 (dose 10 mg/kg i.v. bolus) [mmHg] | Decrease in systolic blood pressure (mmHg) time after administration (hour) 4 (dose 10 mg/kg i.v. bolus) [mmHg] | other results |
| --- | --- | --- | --- |
| Cl.O=C1CCCCC1CCCCN1CCC(=C2c3ccccc3C=Cc3ccccc32)CC1 (stereo not shown) [Example 215, 2-(4-(4-(5H-Dibenzo[a,d]cyclohepten-5-ylidene)-1-piperidinyl)butyl)cyclohexanone hydrochloride] | −128 | −14 | – |
| COC1CCCC(CCCCN2CCC(=C3c4ccccc4C=Cc4ccccc43)CC2)C1.Cl (stereo not shown) [Example 299, 1-(1-(3-Methoxy)cyclohexyl)-4-(4-(5H-dibenzo[a,d]cyclohepten-5-ylidene)-1-piperidinyl)butane hydrochloride] | −134 | −45 | – |
| C1=Cc2ccccc2C(=C2CCN(Cc3cccc4ccccc34)CC2)c2ccccc21.Cl [Example 214, 4-(5H-Dibenzo[a,d]cyclohepten-5-ylidene)-1-(1-naphthylmethyl)piperidine hydrochloride] | −126 | −21 | – |
| C1=Cc2ccccc2C(=C2CCN(Cc3cccnc3)CC2)c2ccccc21.Cl.Cl [Example 162, 4-(5H-Dibenzo[a,d]cyclohepten-5-ylidene)-1-(3-Picolyl)piperidine dihydrochloride] | −62 | −3 | – |
| COc1ccccc1CCCN1CCC(=C2c3ccccc3C=Cc3ccccc32)CC1.Cl [Example 298, 3-(4-(5H-Dibenzo[a,d]cyclohepten-5-ylidene)-1-piperidinyl)-1-(2-methoxyphenyl)propane hydrochloride] | −111 | −31 | – |
| Cl.N#Cc1cccc(CN2CCC(=C3c4ccccc4C=Cc4ccccc43)CC2)c1 [Example 159, 1-(3-Cyanobenzyl)-4-(5H-dibenzo[a,d]cyclohepten-5-ylidene)piperidine hydrochloride] | −27 | −12 | – |
| Cc1ccccc1CN1CCC(=C2c3ccccc3C=Cc3ccccc32)CC1.Cl [Example 131, 4-(5H-Dibenzo[a,d]cyclohepten-5-ylidene)-1-(2-methylbenyl)piperidine hydrochloride] | −116 | 2 | – |
| CCCCCCC(C#N)(CCCN1CCC(=C2c3ccccc3C=Cc3ccccc32)CC1)c1cccc(C(F)(F)F)c1.Cl (stereo not shown) [Example 151, 5-(4-(5H-Dibenzo[ac]cyclohepten-5-ylidene)-1-piperidinyl)-2-hexyl-2-(3-trifluoromethylphenyl)valeronitrile hydrochloride] | −81 | −43 | – |
| Cl.O=C(CCCN1CCC(=C2c3ccccc3C=Cc3ccccc32)CC1)N1CCc2ccccc2C1 [Example 204, N-(4-(4-(5H-Dibenzo[a,d]cyclohepten-5-ylidene)-1-piperidinyl)butanoyl)-1,2,3,4-tetrahydroisoquinoline hydrochloride] | −141 | −84 | – |
| 4-(2-(4-(5H-Dibenzo[a,d]cyclohepten-5-ylidene)-1-piperidinyl)-1-ehtyl)-2,4,5,6-tetramethyl-1,4-dihydropyridino-3,5-dicarboxylate hydrochloride [Example 311] | −90 | −18 | – |
| COc1ccc(C(=O)NCCN2CCC(=C3c4ccccc4C=Cc4ccccc43)CC2)cc1OC.Cl [Example 242, N-(2-(5H-Dibenzo[a,d]cyclohepten-5-ylidene)-1-piperidinyl)ethyl-3′,4′-dimethoxybenzamide hydrochloride] | −28 | 7 | – |
| COC(=O)c1c(C)nc(CCCCN2CCC(=C3c4ccccc4C=Cc4ccccc43)CC2)c(C(=O)OC)c1C.Cl [Example 323, 2-(4-(4-(5H-Dibenzo[a,d]cyclohepten-5-ylidene)-1-piperidinyl)-1-butyl)-3,4-5,6-tetramethylpyridine-3,5-dicarboxylate hydrochloride] | −117 | −11 | – |
| COc1ccc(CCCCN2CCC(=C3c4ccccc4C=Cc4ccccc43)CC2)cc1OC.Cl [Example 221, 4-(5H-Dibenzo[a,d]cyclohepten-5-ylidene)-1-(4-(3′,4′-dimethoxyphenyl)butyl)piperidine hydrochloride] | −70 | −13 | – |
| Cl.Cl.Nc1cccc(CN2CCC(=C3c4ccccc4C=Cc4ccccc43)CC2)c1 [Example 139, 1-(3-Aminobenzy)-4-(5H-Dibenzo[a,d]cyclohepten-5-ylidene)piperidine dihydrochloride] | −139 | −89 | – |
| COC(=O)c1ccc(C=CCN2CCC(=C3c4ccccc4C=Cc4ccccc43)CC2)cc1.Cl [Example 376, 4-(5H-Dibenzo[a,d]cyclohepten-5-ylidene)-1-(4-methoxycarbonylcinnamyl)piperidine hydrochloride] | – | – | Decrease in systolic blood pressure (mmHg) time after administration (hour) 0.5 (dose 3 mg/kg i.v. bolus): −106 mmHg; Decrease in systolic blood pressure (mmHg) time after administration (hour) 4 (dose 3 mg/kg i.v. bolus): −77 mmHg |
| Cl.Cl.Nc1ccc(C=CCN2CCC(=C3c4ccccc4C=Cc4ccccc43)CC2)cc1 [Example 326, 1-(4-Aminocinnamyl)-4-(5H-Dibenzo[a,d]cyclohepten-5-ylidene)-1-piperidine dihydrochloride] | – | – | Decrease in systolic blood pressure (mmHg) time after administration (hour) 0.5 (dose 1 mg/kg i.v. bolus): −125 mmHg; Decrease in systolic blood pressure (mmHg) time after administration (hour) 4 (dose 1 mg/kg i.v. bolus): −102 mmHg |
| C1=Cc2ccccc2C(=C2CCN(Cc3ccccn3)CC2)c2ccccc21.Cl.Cl [Example 161, 4-(5H-Dibenzo[a,d]cyclohepten-5-ylidene)-1-(2-Picolyl)piperidine dihydrochloride] | −64 | −12 | – |
| C1=Cc2ccccc2C(=C2CCN(CCCCN3CCCCC3)CC2)c2ccccc21 [Example 209, 1-(4-(4-(5H-Dibenzo[a,d]cyclohepten-5-ylidene)-1-piperidinyl)butyl)piperidine dihydroxybutane hydrochloride] | −49 | −13 | – |
| Cl.c1ccc2c(c1)Oc1ccccc1C2=C1CCN(CCCCC2CCCCC2)CC1 [Example 181] | −56 | −27 | – |
| COc1ccc(C(=O)NCCN2CCCCC2=C2c3ccccc3C=Cc3ccccc32)c(OC)c1.Cl [Example 292, N-(2-(5H-Dibenzo[a,d]cyclohepten-5-ylidene)-1-piperidinyl)ethyl-2,4-dimethoxybenzamide hydrochloride] | – | – | Decrease in systolic blood pressure (mmHg) time after administration (hour) 0.5 (dose 3 mg/kg i.v. bolus): −31 mmHg; Decrease in systolic blood pressure (mmHg) time after administration (hour) 4 (dose 3 mg/kg i.v. bolus): 3 mmHg |
